Data reported in US9512144B2, “Imidazothiazole sufonamides as nematicides” (BAYER CROPSCIENCE AKTIENGESELLSCHAFT, priority 2013, dated 2016).

Tests used:
Assay type in all cases: in vivo
[1] = test system: Meloidogyne incognita; assay: Meloidogyne incognita test (MELGIN): sand, salad seeds, gall formation after 14 days; conditions: application rate 20 ppm, salad seedlings in sand
Procedure: Solvent: 125.0 parts by weight of acetone To produce a suitable preparation of active compound, 1 part by weight of active compound is mixed with the stated amount of solvent, and the concentrate is diluted with water to the desired concentration. Vessels are filled with sand, a solution of the active ingredient, a suspension containing eggs and larvae of the southern root-knot nematode (Meloidogyne incognita) and salad seeds. The salad seeds germinate and the seedlings grow. Galls develop in the roots. After 14 days the nematicidal activity is determined on the basis of the percentage of gall formation. 100% means that no galls were found; 0% means that the number of galls found on the roots of the treated plants was equal to that in untreated control plants.

[2] = test system: Meloidogyne incognita; assay: Meloidogyne incognita spray test (MELGIN): leaves of salad and tomato plants sprayed, gall formation 24 days after spraying
Procedure: Solvent: 7 parts by weight of dimethylformamide Emulsifier: alkylaryl polyglycol ether To produce a suitable preparation of active compound, 1 part by weight of active compound is mixed with the stated amount of solvent and is diluted with water, containing an emulsifier concentration of 1000 ppm, to the desired concentration. Further test concentrations are prepared by dilution with emulsifier containing water. Ammonium sulfate and rape oil methyl ester (RME) in a dosage of 1000 ppm are added to the desired concentration. Salad and tomato plants are treated by being sprayed on the leaves with the preparation of the active compound of the desired concentration, the soil surface is covered by a protection film. 3 days after spraying, a suspension containing eggs and larvae of the southern root-knot nematode (Meloidogyne incognita) is added on the soil surface. Galls develop on the roots. 24 days after spraying, the nematicidal activity is determined on the basis of the percentage of gall formation. 100% means no galls were found; 0% means the number of galls found on the roots of the treated plants was equal to that in untreated control plants. […] Test plant: Tomato, Lycopersicon esculentum Test plant: Salad, Lactuca sativa

[3] = test system: Meloidogyne incognita; assay: Meloidogyne incognita test: compound solution poured into pots with soil (loamy sand), salad seeds, gall formation after 21 days; conditions: salad in soil
Procedure: Solvent: 7 parts by weight of dimethylformamide Emulsifier: 2.5 parts by weight of alkylarylpolyglycolether To produce a suitable preparation of active compound, 1 part by weight of active compound is mixed with the stated amount of solvent and emulsifier and is diluted with water to the desired concentration. In the calculation of the concentration the soil volume has to be included. […] Further test concentrations are prepared by dilution with water. The compound solution is poured into pots filled with soil (loamy sand). A suspension containing eggs and larvae of the southern root-knot nematode (Meloidogyne incognita) is added, salad seeds are spread on the soil surface and covered with quartz sand. The salad seeds germinate and the seedlings grow. Galls develop on the roots. After 21 days the nematicidal activity is determined on the basis of the percentage of gall formation. 100% means no galls were found; 0% means the number of galls found on the roots of the treated plants was equal to that in untreated control plants.

[4] = test plant Salad, Lactuca sativa, leaf spray 100 ppm
[5] = test plant Salad, Lactuca sativa, leaf spray 1000 ppm
[6] = test plant Salad, Lactuca sativa, leaf spray 2500 ppm
[7] = test plant Tomato, Lycopersicon esculentum, leaf spray 100 ppm
[8] = test plant Tomato, Lycopersicon esculentum, leaf spray 1000 ppm
[9] = test plant Tomato, Lycopersicon esculentum, leaf spray 2500 ppm

| SMILES | nematicidal activity on the basis of the percentage of gall formation (100% = no galls) [1] | nematicidal activity on the basis of the percentage of gall formation (100% = no galls) ([3]; application rate 8 ppm) | nematicidal activity on the basis of the percentage of gall formation (100% = no galls) ([3]; application rate 4 ppm) | other results |
| --- | --- | --- | --- | --- |
| O=C(NS(=O)(=O)c1cc(C(F)(F)F)ccc1Cl)c1cn2cc(C(F)(F)F)sc2n1 [Example I-1-4] | 100% |  |  | nematicidal activity on the basis of the percentage of gall formation (100% = no galls) [2, 4]: 0%; nematicidal activity on the basis of the percentage of gall formation (100% = no galls) [2, 5]: 20%; nematicidal activity on the basis of the percentage of gall formation (100% = no galls) [2, 6]: 75%; nematicidal activity on the basis of the percentage of gall formation (100% = no galls) [2, 7]: 25%; nematicidal activity on the basis of the percentage of gall formation (100% = no galls) [2, 8]: 35%; nematicidal activity on the basis of the percentage of gall formation (100% = no galls) [2, 9]: 98%; nematicidal activity on the basis of the percentage of gall formation (100% = no galls) ([3]; application rate 2 ppm): 97% |
| Cc1c(C(F)(F)F)sc2nc(C(=O)NS(=O)(=O)c3c(Cl)cccc3Cl)cn12 [Example I-1-158] | 90% |  |  | nematicidal activity on the basis of the percentage of gall formation (100% = no galls) [2, 4]: 15%; nematicidal activity on the basis of the percentage of gall formation (100% = no galls) [2, 5]: 75%; nematicidal activity on the basis of the percentage of gall formation (100% = no galls) [2, 6]: 80%; nematicidal activity on the basis of the percentage of gall formation (100% = no galls) [2, 7]: 0%; nematicidal activity on the basis of the percentage of gall formation (100% = no galls) [2, 8]: 0%; nematicidal activity on the basis of the percentage of gall formation (100% = no galls) [2, 9]: 50%; nematicidal activity on the basis of the percentage of gall formation (100% = no galls) ([3]; application rate 2 ppm): 98% |
| O=C(NS(=O)(=O)c1c(Cl)cccc1Cl)c1cn2cc(C(F)(F)F)sc2n1 [Example I-1-10] | 100% | 98% |  |  |
| COc1ccc(Cl)c(S(=O)(=O)NC(=O)c2cn3cc(C(F)(F)C(F)(F)F)sc3n2)c1 [Example I-1-147] | 100% | 85% |  |  |
| O=C(NS(=O)(=O)c1ccccc1Br)c1cn2cc(C(F)(F)C(F)(F)F)sc2n1 [Example I-1-227] | 100% | 100% |  |  |
| Cc1c(C(F)(F)F)sc2nc(C(=O)NS(=O)(=O)c3cc(C(F)(F)F)ccc3Cl)cn12 [Example I-1-289] | 100% |  | 85% |  |
| CC(C)Oc1ccc(Cl)c(S(=O)(=O)NC(=O)c2cn3cc(C(F)(F)F)sc3n2)c1 [Example I-1-208] | 100% |  |  | nematicidal activity on the basis of the percentage of gall formation (100% = no galls) ([3]; application rate 1 ppm): 90% |
| COc1ccc(Cl)c(S(=O)(=O)NC(=O)c2cn3c(C)c(C(F)(F)C(F)(F)F)sc3n2)c1 [Example I-1-251] | 100% | 98% |  |  |
| O=C(NS(=O)(=O)c1cc(Br)ccc1Cl)c1cn2cc(C(F)(F)F)sc2n1 [Example I-1-209] | 100% |  | 90% |  |
| O=C(NS(=O)(=O)c1ccccc1Cl)c1cn2cc(C(F)(F)C(F)(F)F)sc2n1 [Example I-1-142] | 100% |  | 80% |  |
| Cc1c(C(F)(F)C(F)(F)F)sc2nc(C(=O)NS(=O)(=O)c3ccccc3Cl)cn12 [Example I-1-255] | 100% | 100% |  |  |
| O=C(NS(=O)(=O)c1cc(Cl)ccc1Br)c1cn2cc(C(F)(F)F)sc2n1 [Example I-1-205] | 100% |  | 95% |  |
| COc1ccc(Br)c(S(=O)(=O)NC(=O)c2cn3cc(C(F)(F)C(F)(F)F)sc3n2)c1 [Example I-1-243] | 100% | 95% |  |  |
| Cc1ccc(C)c(S(=O)(=O)NC(=O)c2cn3c(C)c(C(F)(F)F)sc3n2)c1 [Example I-1-291] | 100% |  | 85% |  |
| COc1ccc(Cl)c(S(=O)(=O)NC(=O)c2cn3c(C)c(C(F)(F)F)sc3n2)c1 [Example I-1-159] | 100% |  |  | nematicidal activity on the basis of the percentage of gall formation (100% = no galls) [2, 4]: 25%; nematicidal activity on the basis of the percentage of gall formation (100% = no galls) [2, 5]: 60%; nematicidal activity on the basis of the percentage of gall formation (100% = no galls) [2, 6]: 95%; nematicidal activity on the basis of the percentage of gall formation (100% = no galls) [2, 7]: 0%; nematicidal activity on the basis of the percentage of gall formation (100% = no galls) [2, 8]: 75%; nematicidal activity on the basis of the percentage of gall formation (100% = no galls) [2, 9]: 95%; nematicidal activity on the basis of the percentage of gall formation (100% = no galls) ([3]; application rate 2 ppm): 95% |
| Cc1c(C(F)(F)C(F)(F)F)sc2nc(C(=O)NS(=O)(=O)c3c(F)cccc3F)cn12 [Example I-1-252] | 90% | 95% |  |  |
| O=C(NS(=O)(=O)c1c(F)cccc1F)c1cn2cc(C(F)(F)C(F)(F)F)sc2n1 [Example I-1-222] | 100% | 90% |  |  |
| COc1ccc(Br)c(S(=O)(=O)NC(=O)c2cn3cc(C(F)(F)F)sc3n2)c1 [Example I-1-206] | 100% |  | 100% |  |
| CCCOc1ccc(Cl)c(S(=O)(=O)NC(=O)c2cn3cc(C(F)(F)F)sc3n2)c1 [Example I-1-207] | 100% |  | 95% |  |
